Legend:
FLT3 ITD = target: T1, FLT3 ITD (Homo sapiens, UniProt P36888); test: DiscoverX KINOMEscan competition binding assay, FLT3 ITD; details: 11-point 3-fold dilution
T1 construct: fused on or other part: DNA tag for qPCR detection (kinase-tagged T7 phage, or made in HEK-293 cells and then tagged with DNA)
T1 sequence (P36888 1-993): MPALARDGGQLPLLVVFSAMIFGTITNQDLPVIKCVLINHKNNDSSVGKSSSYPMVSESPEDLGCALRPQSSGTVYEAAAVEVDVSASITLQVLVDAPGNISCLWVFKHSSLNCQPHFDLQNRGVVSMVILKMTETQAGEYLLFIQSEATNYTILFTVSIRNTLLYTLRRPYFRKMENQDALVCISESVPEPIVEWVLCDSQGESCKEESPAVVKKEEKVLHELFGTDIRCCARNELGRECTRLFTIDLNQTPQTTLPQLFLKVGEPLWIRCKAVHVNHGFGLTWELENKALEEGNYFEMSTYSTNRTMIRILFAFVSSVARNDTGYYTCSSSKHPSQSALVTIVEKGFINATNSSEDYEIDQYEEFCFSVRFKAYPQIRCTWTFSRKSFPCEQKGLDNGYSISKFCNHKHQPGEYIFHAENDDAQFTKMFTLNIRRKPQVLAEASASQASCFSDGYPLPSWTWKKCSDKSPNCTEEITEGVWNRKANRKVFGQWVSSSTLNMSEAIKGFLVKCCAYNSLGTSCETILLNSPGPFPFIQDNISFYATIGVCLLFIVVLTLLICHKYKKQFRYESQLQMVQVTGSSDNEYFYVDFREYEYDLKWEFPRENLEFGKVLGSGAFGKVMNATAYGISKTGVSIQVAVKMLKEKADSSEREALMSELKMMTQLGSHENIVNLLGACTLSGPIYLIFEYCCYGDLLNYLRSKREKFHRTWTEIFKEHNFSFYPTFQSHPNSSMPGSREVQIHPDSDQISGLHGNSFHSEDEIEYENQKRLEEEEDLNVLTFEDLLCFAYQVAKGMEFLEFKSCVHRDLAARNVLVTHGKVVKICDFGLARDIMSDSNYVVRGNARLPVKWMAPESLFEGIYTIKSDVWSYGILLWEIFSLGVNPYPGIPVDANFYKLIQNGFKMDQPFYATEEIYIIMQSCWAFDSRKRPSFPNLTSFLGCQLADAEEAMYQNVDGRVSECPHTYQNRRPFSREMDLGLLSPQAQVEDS
Source text: (§1) […]. […] As a result, the data report thermodynamic interaction affinities (Kd values), rather than IC50 values that are dependent on ATP concentrations. The assay uses a DNA-tagged version of the protein kinase, and an immobilized ligand bound to a solid support. Compounds that directly or indirectly prevent kinase binding to the immobilized ligand reduce the amount of kinase captured on the solid support, which is detected using an ultra-sensitive qPCR method. Affinity constants reported from the assay have been reported to be independent of the immobilized ligand used that is coupled to the solid support (See supplemental information in Fabian, M. A. et. al., (2005) Nat. Biotechnol. 23, 329-336; Wodicka, L. M. et. al., (2010) Chem. Biol. 17, 1241-1249.)
(§2) Kinase-tagged T7 phage strains were prepared in an E. coli host derived from the BL21 strain. E. coli were grown to log-phase and infected with T7 phage and incubated with shaking at 32° C. until lysis. The lysates were centrifuged and filtered to remove cell debris. The remaining kinases were produced in HEK-293 cells and subsequently tagged with DNA for qPCR detection. Streptavidin-coated magnetic beads were treated with biotinylated small molecule ligands for 30 minutes at room temperature to generate affinity resins for kinase assays. The liganded beads were blocked with excess biotin and washed with blocking buffer (SeaBlock (Pierce), 1% BSA, 0.05% Tween 20, 1 mM DTT) to remove unbound ligand and to reduce non-specific binding. […] Test compounds were prepared as 111× stocks in 100% DMSO. Kds were determined using an 11-point 3-fold compound dilution series with three DMSO control points. All compounds for Kd measurements are distributed by acoustic transfer (non-contact dispensing) in 100% DMSO. The compounds were then diluted directly into the assays such that the final concentration of DMSO was 0.9%. All reactions were performed in polypropylene 384-well plates. Each was a final volume of 0.02 mL. […] The kinase concentration in the eluates was measured by qPCR.
(§3) Binding constants (Kds) were calculated with a standard dose-response curve using the Hill equation. The Hill Slope was set to −1. Curves were fitted using a non-linear least square fit with the Levenberg-Marquardt algorithm.

FLT3 K663Q = target: T2, FLT3 K663Q (Homo sapiens, UniProt P36888, K663Q); test: DiscoverX KINOMEscan competition binding assay, FLT3 K663Q; details: 11-point 3-fold dilution
T2 construct: purchased DiscoverX (KINOMEscan); host or cells: E. coli BL21-derived host (T7 phage) or HEK-293
T2 sequence (P36888 27-993 K663Q): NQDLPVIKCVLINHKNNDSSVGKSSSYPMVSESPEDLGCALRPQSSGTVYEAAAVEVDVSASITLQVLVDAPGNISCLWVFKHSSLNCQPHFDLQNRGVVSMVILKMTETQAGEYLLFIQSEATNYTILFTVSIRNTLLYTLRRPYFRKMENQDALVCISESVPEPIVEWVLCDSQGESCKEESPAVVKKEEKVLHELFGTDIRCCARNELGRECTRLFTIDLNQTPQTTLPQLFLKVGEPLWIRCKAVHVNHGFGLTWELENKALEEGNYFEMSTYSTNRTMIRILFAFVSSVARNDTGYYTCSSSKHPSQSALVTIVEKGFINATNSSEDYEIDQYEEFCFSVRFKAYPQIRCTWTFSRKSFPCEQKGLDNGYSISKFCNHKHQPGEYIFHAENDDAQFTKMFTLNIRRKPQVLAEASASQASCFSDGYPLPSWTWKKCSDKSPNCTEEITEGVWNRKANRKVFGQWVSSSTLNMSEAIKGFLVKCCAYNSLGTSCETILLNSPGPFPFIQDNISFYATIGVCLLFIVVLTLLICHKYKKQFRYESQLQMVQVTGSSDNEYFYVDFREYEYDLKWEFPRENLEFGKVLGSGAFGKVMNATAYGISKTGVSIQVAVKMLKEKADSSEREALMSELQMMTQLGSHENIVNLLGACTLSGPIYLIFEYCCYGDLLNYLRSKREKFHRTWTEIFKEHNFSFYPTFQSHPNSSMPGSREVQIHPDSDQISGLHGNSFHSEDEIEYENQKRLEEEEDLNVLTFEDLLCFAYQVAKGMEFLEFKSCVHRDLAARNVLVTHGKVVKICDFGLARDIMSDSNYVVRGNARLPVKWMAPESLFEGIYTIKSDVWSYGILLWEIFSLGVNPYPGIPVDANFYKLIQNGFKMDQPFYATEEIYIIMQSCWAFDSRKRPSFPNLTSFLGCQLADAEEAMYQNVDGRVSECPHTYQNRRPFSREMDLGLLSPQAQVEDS
Source text: as §1, §2, §3

Structure (SMILES) | Kd (FLT3 ITD) [nM] | Kd (FLT3 K663Q) [nM]
COc1cc2ncc(-c3nc(N[C@H]4CNCC[C@@H]4F)ncc3F)n2nc1N1CCCS1(=O)=O [Compound 112a, 2-(3-(5-fluoro-2-(((3S,4S)-4-fluoropiperidin-3-yl)amino)pyrimidin-4-yl)-7-methoxyimidazo[1,2-b]pyridazin-6-yl)isothiazolidine 1,1-dioxide] | 0.2 | 0.31
COc1cc2ncc(-c3nc(N[C@H]4CNCC[C@@H]4F)ncc3F)n2nc1C(C)(C)O [Compound 45a, 2-(3-(5-fluoro-2-(((3S,4S)-4-fluoropiperidin-3-yl)amino)pyrimidin-4-yl)-7-methoxyimidazo[1,2-b]pyridazin-6-yl)propan-2-ol] | < 0.17 | 3.5
COc1cc2ncc(-c3nc(N[C@H]4CNCC[C@@H]4F)ncc3F)n2nc1C1COC1 [Compound 92a, 5-fluoro-N-((3S,4S)-4-fluoropiperidin-3-yl)-4-(7-methoxy-6-(oxetan-3-yl)imidazo[1,2-b]pyridazin-3-yl)pyrimidin-2-amine] | 0.21 | 0.49
FC(F)COc1cc2ncc(-c3ccnc(N[C@H]4CNCC[C@@H]4F)n3)n2nc1C1CC1 [Compound 4a, 4-(6-cyclopropyl-7-(2,2-difluoroethoxy)imidazo[1,2-b]pyridazin-3-yl)-N-((3 S,4S)-4-fluoropiperidin-3-yl)pyrimidin-2-amine] | 1.7 | 2.3
CC(C)(O)c1ccc2ncc(-c3nc(N[C@H]4CNCC[C@@H]4F)ncc3F)n2c1 [Compound 46a, 2-(3-(5-fluoro-2-(((3S,4S)-4-fluoropiperidin-3-yl)amino)pyrimidin-4-yl)imidazo[1,2-a]pyridin-6-yl)propan-2-ol] | 0.19 | 3.7
COc1cc2ncc(-c3nc(N[C@H]4CNCC[C@@H]4F)ncc3F)n2nc1C1CC1 [Compound 1a, 4-(6-cyclopropyl-7-methoxyimidazo[1,2-b]pyridazin-3-yl)-5-fluoro-N-((3S,4S)-4-fluoropiperidin-3-yl)pyrimidin-2-amine] | 0.21 | 0.27
CC(C)(O)c1cn2c(-c3nc(N[C@H]4CNCC[C@@H]4F)ncc3F)cnc2cn1 [Compound 100a, 2-(3-(5-fluoro-2-(((3S,4S)-4-fluoropiperidin-3-yl)amino)pyrimidin-4-yl)imidazo[1,2-a]pyrazin-6-yl)propan-2-ol] | 2.7 | 30
